Read-outs that look alike come from different tables or passages of the source.
Key:
Assay in all cases: selectivity profiling in a panel of 340 wild-type kinases (Reaction Biology Europe)
Type in all cases: binding
340 wild-type kinases [1] = molecular target: T1, 340 wild-type kinases (Homo sapiens, UniProt P09619)
T1 construct: purchased Reaction Biology Europe

340 wild-type kinases [2] = molecular target: T2, 340 wild-type kinases (Homo sapiens, UniProt P32298)
T2 construct: purchased Reaction Biology Europe

340 wild-type kinases [3] = molecular target: T3, 340 wild-type kinases (Homo sapiens, UniProt P49840)
T3 construct: purchased Reaction Biology Europe

340 wild-type kinases [4] = molecular target: T4, 340 wild-type kinases (Homo sapiens, UniProt P51813)
T4 construct: purchased Reaction Biology Europe
T4 sequence (P51813 1-675): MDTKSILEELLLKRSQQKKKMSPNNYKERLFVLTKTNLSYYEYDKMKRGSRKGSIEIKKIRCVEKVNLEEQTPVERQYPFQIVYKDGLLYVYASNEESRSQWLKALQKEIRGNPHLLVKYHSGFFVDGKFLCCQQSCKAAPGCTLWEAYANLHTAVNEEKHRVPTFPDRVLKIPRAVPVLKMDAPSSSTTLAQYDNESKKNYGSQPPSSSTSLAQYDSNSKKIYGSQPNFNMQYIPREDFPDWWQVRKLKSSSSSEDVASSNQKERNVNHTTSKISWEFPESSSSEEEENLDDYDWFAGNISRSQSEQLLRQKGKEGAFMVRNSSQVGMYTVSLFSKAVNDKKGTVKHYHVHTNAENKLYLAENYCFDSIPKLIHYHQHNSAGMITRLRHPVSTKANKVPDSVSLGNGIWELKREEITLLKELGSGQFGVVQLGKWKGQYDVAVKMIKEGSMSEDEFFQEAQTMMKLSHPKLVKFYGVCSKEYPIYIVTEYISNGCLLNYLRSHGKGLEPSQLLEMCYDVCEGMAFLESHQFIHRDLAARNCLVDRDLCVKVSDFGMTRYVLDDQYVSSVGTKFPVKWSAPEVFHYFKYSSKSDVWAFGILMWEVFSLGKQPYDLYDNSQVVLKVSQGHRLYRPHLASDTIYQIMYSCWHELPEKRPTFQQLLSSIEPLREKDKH

340 wild-type kinases [5] = molecular target: T5, 340 wild-type kinases (Homo sapiens, UniProt P52564, S207D/T211D)
T5 construct: purchased Reaction Biology Europe
T5 sequence (P52564 1-334 S207D/T211D): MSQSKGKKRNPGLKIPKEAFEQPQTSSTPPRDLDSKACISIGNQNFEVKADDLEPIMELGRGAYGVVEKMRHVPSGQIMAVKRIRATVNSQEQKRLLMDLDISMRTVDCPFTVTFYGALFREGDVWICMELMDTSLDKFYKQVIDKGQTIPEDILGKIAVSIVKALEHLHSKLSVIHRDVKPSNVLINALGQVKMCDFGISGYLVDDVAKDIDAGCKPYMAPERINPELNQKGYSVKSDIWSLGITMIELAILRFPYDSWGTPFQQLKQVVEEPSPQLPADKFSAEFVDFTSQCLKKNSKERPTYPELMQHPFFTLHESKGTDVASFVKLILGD

340 wild-type kinases [6] = molecular target: T6, 340 wild-type kinases (Homo sapiens, UniProt Q02156)
T6 construct: purchased Reaction Biology Europe
T6 sequence (Q02156 1-737): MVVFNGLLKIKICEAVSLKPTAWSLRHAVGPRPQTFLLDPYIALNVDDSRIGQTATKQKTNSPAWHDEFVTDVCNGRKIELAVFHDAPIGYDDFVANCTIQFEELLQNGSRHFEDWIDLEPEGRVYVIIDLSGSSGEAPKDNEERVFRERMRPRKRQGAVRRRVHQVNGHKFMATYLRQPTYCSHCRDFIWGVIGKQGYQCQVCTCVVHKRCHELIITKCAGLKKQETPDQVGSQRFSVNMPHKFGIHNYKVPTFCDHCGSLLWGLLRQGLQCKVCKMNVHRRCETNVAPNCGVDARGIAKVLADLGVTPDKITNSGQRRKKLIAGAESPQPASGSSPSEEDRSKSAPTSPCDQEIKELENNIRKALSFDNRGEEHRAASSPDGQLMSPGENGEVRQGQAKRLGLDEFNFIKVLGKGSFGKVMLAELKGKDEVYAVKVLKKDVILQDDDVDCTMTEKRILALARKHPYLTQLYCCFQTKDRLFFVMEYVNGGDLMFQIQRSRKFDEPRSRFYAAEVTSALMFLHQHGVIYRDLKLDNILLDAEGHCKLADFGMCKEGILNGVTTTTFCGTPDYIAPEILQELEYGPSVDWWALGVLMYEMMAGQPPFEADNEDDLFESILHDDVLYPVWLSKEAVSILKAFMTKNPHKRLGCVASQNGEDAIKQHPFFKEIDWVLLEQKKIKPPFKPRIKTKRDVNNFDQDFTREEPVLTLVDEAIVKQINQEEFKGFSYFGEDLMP

340 wild-type kinases [7] = molecular target: T7, 340 wild-type kinases (Homo sapiens, UniProt Q06187)
T7 construct: purchased Reaction Biology Europe

340 wild-type kinases [8] = molecular target: T8, 340 wild-type kinases (Homo sapiens, UniProt Q96RG2)
T8 construct: purchased Reaction Biology Europe

340 wild-type kinases [9] = molecular target: T9, 340 wild-type kinases (Homo sapiens, UniProt Q9H2G2)
T9 construct: purchased Reaction Biology Europe

340 wild-type kinases [10] = molecular target: T10, 340 wild-type kinases (Homo sapiens, UniProt Q9UIK4)
T10 construct: purchased Reaction Biology Europe
T10 sequence (Q9UIK4 whole entry): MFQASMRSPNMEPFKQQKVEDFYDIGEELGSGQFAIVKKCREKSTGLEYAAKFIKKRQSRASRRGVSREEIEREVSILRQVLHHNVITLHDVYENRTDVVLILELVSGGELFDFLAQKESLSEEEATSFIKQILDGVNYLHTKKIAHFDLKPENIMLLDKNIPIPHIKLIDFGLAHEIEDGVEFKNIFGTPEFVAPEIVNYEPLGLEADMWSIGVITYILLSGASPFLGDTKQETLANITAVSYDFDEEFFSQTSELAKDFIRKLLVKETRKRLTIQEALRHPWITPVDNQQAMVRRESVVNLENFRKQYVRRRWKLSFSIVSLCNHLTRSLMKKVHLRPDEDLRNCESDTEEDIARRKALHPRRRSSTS

T7 sequence (Q06187 whole entry): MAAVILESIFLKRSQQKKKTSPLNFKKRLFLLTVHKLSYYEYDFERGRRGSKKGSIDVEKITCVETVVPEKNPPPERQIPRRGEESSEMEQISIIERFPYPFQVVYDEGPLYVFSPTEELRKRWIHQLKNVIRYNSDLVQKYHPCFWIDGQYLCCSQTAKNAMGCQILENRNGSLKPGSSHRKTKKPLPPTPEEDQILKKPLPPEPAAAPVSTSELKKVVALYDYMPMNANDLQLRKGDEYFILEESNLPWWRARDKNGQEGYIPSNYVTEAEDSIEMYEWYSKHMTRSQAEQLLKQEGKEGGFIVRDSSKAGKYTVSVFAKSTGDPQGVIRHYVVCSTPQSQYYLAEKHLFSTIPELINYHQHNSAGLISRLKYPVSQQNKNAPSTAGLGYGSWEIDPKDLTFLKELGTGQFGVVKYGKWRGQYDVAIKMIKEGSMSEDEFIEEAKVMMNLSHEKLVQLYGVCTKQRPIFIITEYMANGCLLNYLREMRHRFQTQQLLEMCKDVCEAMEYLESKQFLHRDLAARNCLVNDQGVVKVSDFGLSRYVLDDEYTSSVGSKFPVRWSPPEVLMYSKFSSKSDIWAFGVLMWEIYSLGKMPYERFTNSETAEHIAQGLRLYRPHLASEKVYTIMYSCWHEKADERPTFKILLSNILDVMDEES
T2 sequence (P32298 whole entry): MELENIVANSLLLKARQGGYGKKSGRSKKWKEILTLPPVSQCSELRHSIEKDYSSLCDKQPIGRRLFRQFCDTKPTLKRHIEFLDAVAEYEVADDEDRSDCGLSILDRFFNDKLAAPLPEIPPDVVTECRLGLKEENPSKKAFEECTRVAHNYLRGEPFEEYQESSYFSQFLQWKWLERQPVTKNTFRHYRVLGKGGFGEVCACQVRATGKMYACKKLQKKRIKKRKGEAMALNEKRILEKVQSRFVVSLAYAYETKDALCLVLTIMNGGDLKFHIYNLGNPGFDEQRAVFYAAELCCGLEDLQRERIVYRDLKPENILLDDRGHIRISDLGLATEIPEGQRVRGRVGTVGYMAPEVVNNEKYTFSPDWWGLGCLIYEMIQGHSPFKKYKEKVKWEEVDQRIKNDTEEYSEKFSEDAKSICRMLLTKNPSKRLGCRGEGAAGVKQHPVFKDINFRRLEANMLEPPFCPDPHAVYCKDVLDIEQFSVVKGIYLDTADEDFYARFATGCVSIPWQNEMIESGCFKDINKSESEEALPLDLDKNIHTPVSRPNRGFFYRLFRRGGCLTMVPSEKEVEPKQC
T3 sequence (P49840 whole entry): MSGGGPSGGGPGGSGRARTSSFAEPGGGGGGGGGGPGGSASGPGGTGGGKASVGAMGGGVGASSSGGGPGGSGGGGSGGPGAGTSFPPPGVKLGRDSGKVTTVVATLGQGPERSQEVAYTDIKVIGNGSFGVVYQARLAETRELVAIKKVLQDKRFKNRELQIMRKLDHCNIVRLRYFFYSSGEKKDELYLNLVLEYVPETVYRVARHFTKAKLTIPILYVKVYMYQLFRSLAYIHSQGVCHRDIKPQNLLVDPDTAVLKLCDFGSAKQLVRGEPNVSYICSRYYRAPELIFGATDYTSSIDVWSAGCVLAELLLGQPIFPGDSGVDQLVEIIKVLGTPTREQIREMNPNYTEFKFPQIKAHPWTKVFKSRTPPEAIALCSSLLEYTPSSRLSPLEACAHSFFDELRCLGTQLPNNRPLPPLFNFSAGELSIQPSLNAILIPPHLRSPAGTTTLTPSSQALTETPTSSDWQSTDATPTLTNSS
T8 sequence (Q96RG2 whole entry): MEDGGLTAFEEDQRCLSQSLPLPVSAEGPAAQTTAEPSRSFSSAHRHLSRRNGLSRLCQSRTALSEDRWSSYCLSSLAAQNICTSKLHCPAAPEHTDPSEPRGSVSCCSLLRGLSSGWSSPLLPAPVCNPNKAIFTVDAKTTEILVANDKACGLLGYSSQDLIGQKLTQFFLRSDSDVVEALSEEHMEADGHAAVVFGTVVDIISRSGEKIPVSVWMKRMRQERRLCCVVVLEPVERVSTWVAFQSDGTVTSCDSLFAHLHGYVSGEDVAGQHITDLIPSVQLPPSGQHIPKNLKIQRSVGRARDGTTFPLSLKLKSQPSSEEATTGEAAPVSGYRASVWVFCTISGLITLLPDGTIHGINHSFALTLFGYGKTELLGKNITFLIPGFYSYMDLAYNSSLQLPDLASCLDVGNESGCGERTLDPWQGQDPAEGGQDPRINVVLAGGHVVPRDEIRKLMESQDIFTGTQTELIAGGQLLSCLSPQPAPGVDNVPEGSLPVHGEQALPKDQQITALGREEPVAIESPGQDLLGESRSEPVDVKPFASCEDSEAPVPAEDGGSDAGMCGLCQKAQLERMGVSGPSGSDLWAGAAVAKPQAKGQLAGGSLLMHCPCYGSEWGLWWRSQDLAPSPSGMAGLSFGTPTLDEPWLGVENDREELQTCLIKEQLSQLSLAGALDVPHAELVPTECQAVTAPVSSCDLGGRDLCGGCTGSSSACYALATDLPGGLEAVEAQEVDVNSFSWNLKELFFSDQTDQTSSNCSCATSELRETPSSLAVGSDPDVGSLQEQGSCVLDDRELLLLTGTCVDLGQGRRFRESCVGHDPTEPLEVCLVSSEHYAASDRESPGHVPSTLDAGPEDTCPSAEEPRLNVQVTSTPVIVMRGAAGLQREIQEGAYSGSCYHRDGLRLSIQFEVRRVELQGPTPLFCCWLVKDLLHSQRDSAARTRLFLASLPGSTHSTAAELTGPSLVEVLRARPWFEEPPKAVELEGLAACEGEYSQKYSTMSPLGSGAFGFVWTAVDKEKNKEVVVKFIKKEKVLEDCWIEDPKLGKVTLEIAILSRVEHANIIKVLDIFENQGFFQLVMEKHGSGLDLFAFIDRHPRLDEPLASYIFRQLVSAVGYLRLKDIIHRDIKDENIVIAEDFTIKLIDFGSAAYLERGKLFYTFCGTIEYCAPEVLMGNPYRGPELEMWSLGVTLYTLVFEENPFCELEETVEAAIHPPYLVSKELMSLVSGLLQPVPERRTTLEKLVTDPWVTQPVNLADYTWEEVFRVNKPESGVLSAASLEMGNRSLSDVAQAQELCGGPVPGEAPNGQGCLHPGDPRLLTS
T9 sequence (Q9H2G2 whole entry): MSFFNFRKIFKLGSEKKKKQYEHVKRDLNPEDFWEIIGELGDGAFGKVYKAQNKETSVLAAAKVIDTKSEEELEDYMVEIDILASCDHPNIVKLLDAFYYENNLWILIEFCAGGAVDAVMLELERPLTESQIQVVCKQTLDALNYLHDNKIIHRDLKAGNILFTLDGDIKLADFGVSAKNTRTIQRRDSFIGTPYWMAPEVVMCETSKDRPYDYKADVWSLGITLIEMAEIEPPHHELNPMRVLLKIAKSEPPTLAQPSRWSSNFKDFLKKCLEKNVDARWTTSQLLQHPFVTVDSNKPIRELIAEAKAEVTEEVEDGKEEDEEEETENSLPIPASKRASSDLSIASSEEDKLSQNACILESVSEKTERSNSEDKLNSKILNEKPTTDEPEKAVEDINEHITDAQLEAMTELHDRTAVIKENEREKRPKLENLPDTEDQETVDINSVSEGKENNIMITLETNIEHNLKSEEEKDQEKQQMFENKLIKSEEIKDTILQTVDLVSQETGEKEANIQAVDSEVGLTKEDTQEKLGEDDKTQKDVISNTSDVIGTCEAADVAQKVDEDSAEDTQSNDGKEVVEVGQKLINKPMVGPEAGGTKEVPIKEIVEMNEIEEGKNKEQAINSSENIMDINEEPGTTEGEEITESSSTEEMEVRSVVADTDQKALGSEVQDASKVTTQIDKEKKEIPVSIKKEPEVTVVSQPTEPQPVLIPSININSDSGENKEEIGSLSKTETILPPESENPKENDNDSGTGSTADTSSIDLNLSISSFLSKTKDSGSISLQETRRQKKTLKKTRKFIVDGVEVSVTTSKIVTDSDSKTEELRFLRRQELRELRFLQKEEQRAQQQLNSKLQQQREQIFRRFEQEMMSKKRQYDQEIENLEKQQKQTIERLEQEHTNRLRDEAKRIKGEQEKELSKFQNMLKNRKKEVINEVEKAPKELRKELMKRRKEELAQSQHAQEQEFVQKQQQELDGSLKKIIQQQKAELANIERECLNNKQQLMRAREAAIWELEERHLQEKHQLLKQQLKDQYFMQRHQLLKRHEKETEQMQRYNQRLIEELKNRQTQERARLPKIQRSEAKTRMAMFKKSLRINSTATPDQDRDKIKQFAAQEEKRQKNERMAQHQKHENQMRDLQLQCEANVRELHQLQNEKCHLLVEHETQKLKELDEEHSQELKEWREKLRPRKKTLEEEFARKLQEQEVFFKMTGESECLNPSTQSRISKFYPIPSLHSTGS

For `CNC(=O)c1ccc2c(c1)C(=O)c1ccc(Nc3ccc(F)c(NC(=O)C4CC4)c3)cc1CC2` [Compound 2015], the remaining activity at 0.2 µM (340 wild-type kinases [1]; 0.2 µM 2015, read-out: PDGFRbeta residual activity) was 101%, the remaining activity at 1 µM (340 wild-type kinases [1]; 1 µM 2015, read-out: PDGFRbeta residual activity) was 101% and the remaining activity at 0.2 µM (340 wild-type kinases [1]; PDGFRbeta, 0.2 µM, read-out: residual activity) was 101%. It also gave a remaining activity at 1 µM (340 wild-type kinases [1]; PDGFRbeta, 1 µM, read-out: residual activity) of 101%, a remaining activity at 0.2 µM (340 wild-type kinases [2]; 0.2 µM 2015, read-out: GRK4 residual activity) of 123% and a remaining activity at 1 µM (340 wild-type kinases [2]; 1 µM 2015, read-out: GRK4 residual activity) of 104%. It also gave a remaining activity at 0.2 µM (340 wild-type kinases [2]; GRK4, 0.2 µM, read-out: residual activity) of 123%, a remaining activity at 1 µM (340 wild-type kinases [2]; GRK4, 1 µM, read-out: residual activity) of 104% and a remaining activity at 0.2 µM (340 wild-type kinases [3]; 0.2 µM 2015, read-out: GSK3alpha residual activity) of 110%. The remaining activity at 1 µM (340 wild-type kinases [3]; 1 µM 2015, read-out: GSK3alpha residual activity) was 82.6%, the remaining activity at 0.2 µM (340 wild-type kinases [3]; GSK3alpha, 0.2 µM, read-out: residual activity) was 110% and the remaining activity at 1 µM (340 wild-type kinases [3]; GSK3alpha, 1 µM, read-out: residual activity) was 82.6%. For the same molecule, the remaining activity at 0.2 µM (340 wild-type kinases [4]; 0.2 µM 2015, read-out: BMX residual activity) was 96.3%, the remaining activity at 1 µM (340 wild-type kinases [4]; 1 µM 2015, read-out: BMX residual activity) was 86.5% and the remaining activity at 0.2 µM (340 wild-type kinases [4]; BMX, 0.2 µM, read-out: residual activity) was 96.3%. The remaining activity at 1 µM (340 wild-type kinases [4]; BMX, 1 µM, read-out: residual activity) was 86.5%, the remaining activity at 0.2 µM (340 wild-type kinases [5]; 0.2 µM 2015, read-out: MKK6 SDTD residual activity) was 83.9% and the remaining activity at 1 µM (340 wild-type kinases [5]; 1 µM 2015, read-out: MKK6 SDTD residual activity) was 111%. For the same molecule, the remaining activity at 0.2 µM (340 wild-type kinases [5]; MKK6 SDTD, 0.2 µM, read-out: residual activity) was 83.9%, the remaining activity at 1 µM (340 wild-type kinases [5]; MKK6 SDTD, 1 µM, read-out: residual activity) was 111% and the remaining activity at 0.2 µM (340 wild-type kinases [6]; 0.2 µM 2015, read-out: PKCepsilon residual activity) was 83.1%. It also gave a remaining activity at 1 µM (340 wild-type kinases [6]; 1 µM 2015, read-out: PKCepsilon residual activity) of 90.5%, a remaining activity at 0.2 µM (340 wild-type kinases [6]; PKCepsilon, 0.2 µM, read-out: residual activity) of 83.1% and a remaining activity at 1 µM (340 wild-type kinases [6]; PKCepsilon, 1 µM, read-out: residual activity) of 90.5%. The remaining activity at 0.2 µM (340 wild-type kinases [7]; 0.2 µM 2015, read-out: BTK residual activity) was 116%, the remaining activity at 1 µM (340 wild-type kinases [7]; 1 µM 2015, read-out: BTK residual activity) was 106% and the remaining activity at 0.2 µM (340 wild-type kinases [7]; BTK, 0.2 µM, read-out: residual activity) was 116%. It also gave a remaining activity at 1 µM (340 wild-type kinases [7]; BTK, 1 µM, read-out: residual activity) of 106%, a remaining activity at 0.2 µM (340 wild-type kinases [8]; 0.2 µM 2015, read-out: PASK residual activity) of 99.2% and a remaining activity at 1 µM (340 wild-type kinases [8]; 1 µM 2015, read-out: PASK residual activity) of 95.1%. It also gave a remaining activity at 0.2 µM (340 wild-type kinases [8]; PASK, 0.2 µM, read-out: residual activity) of 99.2%, a remaining activity at 1 µM (340 wild-type kinases [8]; PASK, 1 µM, read-out: residual activity) of 95.1% and a remaining activity at 0.2 µM (340 wild-type kinases [9]; 0.2 µM 2015, read-out: SLK residual activity) of 75%. The remaining activity at 1 µM (340 wild-type kinases [9]; 1 µM 2015, read-out: SLK residual activity) was 75.3%, the remaining activity at 0.2 µM (340 wild-type kinases [9]; SLK, 0.2 µM, read-out: residual activity) was 75% and the remaining activity at 1 µM (340 wild-type kinases [9]; SLK, 1 µM, read-out: residual activity) was 75.3%. It also gave a remaining activity at 0.2 µM (340 wild-type kinases [10]; 0.2 µM 2015, read-out: DAPK2 residual activity) of 116%, a remaining activity at 1 µM (340 wild-type kinases [10]; 1 µM 2015, read-out: DAPK2 residual activity) of 100% and a remaining activity at 0.2 µM (340 wild-type kinases [10]; DAPK2, 0.2 µM, read-out: residual activity) of 116%. It also gave a remaining activity at 1 µM (340 wild-type kinases [10]; DAPK2, 1 µM, read-out: residual activity) of 100%.
